The values below are quoted from earlier work in patent US20170217996A1, “Large-scale diastereoselective syntheses of cycloheptadienylsulfones and stereotetrads” (Purdue Research Foundation, priority 2014, published 2017).

Data set [1] has as its system actin. The note with it: in vitro.
Data set [2] relates to tubulin. The note with it: in association with actin.
Data set [3] concerns actin and tubulin.
The test system of data set [4] is HeLa S3 cells.
Data set [5] concerns Lewis lung. The note with it: mice.
For data set [6], the system named is P388 leukemia. Conditions: mice.
For data set [7], the system named is Ehrlich carcinoma. The note with it: mice.
Data set [8] deals with Colon 26 carcinoma. Conditions: mice.
In data set [9] the test system is B16 melanoma. The note with it: mice.

For `COCC(C(=O)O[C@@H]1C/C=C/C=C/C(=O)O[C@H]([C@@H](C)[C@@H](O)[C@@H](C)CC[C@@H](OC(=O)C(C)N(C)C)[C@H](C)[C@H](OC(C)=O)[C@H](C)/C=C/N(C)C=O)C/C=C/[C@H](OC)C[C@H](C)C/C=C(\C)[C@@H](OC)CC[C@@H](C)[C@@H](O)[C@@H]1C)N(C)C` (stereo partly drawn) [ApA, Aplyronine A], in data set [1], the “inhibition of actin polymerization” value is on record as “inhibit actin polymerization in vitro to the same extent”. Moreover, the “inhibition of tubulin polymerization” value in [2] is recorded as “inhibits tubulin polymerization”. In data set [3], the “complex with actin and tubulin” value was 1:1:1 heterotrimeric complex. In addition, the “concentration that inhibits spindle formation and mitosis” value in [4] is given as 100 pM. The increase of lifespan in [5] is 566%; in data set [6] it was 545%; in [7], 398%; in data set [8], 255%; in data set [9], 201%.
